Reference: the supplement of paper PMC13380429

Experiments:
Conditions in all cases: 72 h
[1] = system: HepG2; assay: drug sensitivity score (DSS) for viability; higher = more toxic; extreme values may be limits of the assay
[2] = system: Vero E6; assay: as above
[3] = system: Calu-3; assay: as above
[4] = system: Caco-2; assay: as above
[5] = system: U2OS; assay: as above
[6] = system: HepG2; assay: cell viability relative to DMSO; higher = less toxic
[7] = system: Vero E6; assay: as above
[8] = system: Calu-3; assay: as above
[9] = system: Caco-2; assay: as above
[10] = system: U2OS; assay: as above
[11] = system: HepG2; assay: relative viability EC50 (midpoint between 100% and the lowest measured viability); higher = less toxic
[12] = system: Vero E6; assay: as above
[13] = system: Calu-3; assay: as above
[14] = system: Caco-2; assay: as above
[15] = system: U2OS; assay: as above

Row | SMILES | drug sensitivity score [1] | drug sensitivity score [2] | drug sensitivity score [3] | drug sensitivity score [4] | drug sensitivity score [5] | cell viability ([6]; 1 nM) [%] | cell viability ([6]; 10 nM) [%] | cell viability ([6]; 100 nM) [%] | cell viability ([6]; 1000 nM) [%] | cell viability ([6]; 10000 nM) [%] | cell viability ([7]; 1 nM) [%] | cell viability ([7]; 10 nM) [%] | cell viability ([7]; 100 nM) [%] | cell viability ([7]; 1000 nM) [%] | cell viability ([7]; 10000 nM) [%] | cell viability ([8]; 1 nM) [%] | cell viability ([8]; 10 nM) [%] | cell viability ([8]; 100 nM) [%] | cell viability ([8]; 1000 nM) [%] | cell viability ([8]; 10000 nM) [%] | cell viability ([9]; 1 nM) [%] | cell viability ([9]; 10 nM) [%] | cell viability ([9]; 100 nM) [%] | cell viability ([9]; 1000 nM) [%] | cell viability ([9]; 10000 nM) [%] | cell viability ([10]; 1 nM) [%] | cell viability ([10]; 10 nM) [%] | cell viability ([10]; 100 nM) [%] | cell viability ([10]; 1000 nM) [%] | cell viability ([10]; 10000 nM) [%] | relative viability EC50 [11] [µM] | relative viability EC50 [12] [µM] | relative viability EC50 [13] [µM] | relative viability EC50 [14] [µM] | relative viability EC50 [15] [µM]
1 | CN1C(=O)C(Cc2c[nH]c3ccccc23)NC1=S (stereo not given) [necrostatin-1] | 0 | 0 | 0 | 0 | 0 | 110 | 94.5 | 98.1 | 94.6 | 90.6 | 95.8 | 99 | 101 | 99.8 | 103 | 93.9 | 92 | 90.3 | 96.2 | 99 | 97.7 | 95.8 | 107 | 110 | 100 | 93.6 | 99.2 | 97.7 | 98.6 | 95.1 | > 10 | > 10 | > 10 | > 10 | > 10
2 | C[N+](C)(C)CCOC(=O)CCC(=O)OCC[N+](C)(C)C [succinylcholine-chloride] | 0 | 0 | 0 | 0 | 0 | 106 | 97.2 | 106 | 93.3 | 102 | 108 | 95.8 | 102 | 89.7 | 102 | 101 | 103 | 101 | 94.8 | 106 | 103 | 97.3 | 99.9 | 97.2 | 104 | 98.7 | 103 | 101 | 101 | 102 | > 10 | > 10 | > 10 | > 10 | > 10
3 | COc1ccc(COc2cc3oc(=O)c4cc(C(C)O)ccc4c3cc2OC)cc1 (stereo not given) [palomid-529] | 0 | 0 | 0 | 0.3 | 0 | 97.3 | 100 | 101 | 99.6 | 102 | 101 | 100 | 99 | 100 | 99.7 | 111 | 98.9 | 84.8 | 101 | 96.2 | 107 | 94.1 | 96.4 | 85.6 | 93.7 | 96.3 | 105 | 94.4 | 94 | 99.8 | > 10 | > 10 | > 10 | > 10 | > 10
4 | C#C[C@]1(OC(C)=O)CC[C@H]2[C@@H]3CCC4=C[C@@H](OC(C)=O)CC[C@@H]4[C@H]3CC[C@@]21C [ethynodiol-diacetate] | 0 | 0 | 0 | 0 | 0 | 104 | 104 | 97.3 | 103 | 107 | 98.6 | 103 | 104 | 98.6 | 108 | 99.4 | 132 | 103 | 99.6 | 102 | 88.6 | 96.9 | 92.4 | 100 | 88.8 | 99 | 98.7 | 99.6 | 97.6 | 92.4 | > 10 | > 10 | > 10 | > 10 | > 10
5 | NC(=O)CC[C@H](N)C(=O)O [L-glutamine] | 0 | 0 | 0 | 0 | 0 | 92.6 | 102 | 104 | 91.6 | 100 | 100 | 100 | 95 | 93 | 92.7 | 91.5 | 91.7 | 96.9 | 95 | 91.2 | 93.2 | 90.8 | 100 | 96.1 | 101 | 102 | 102 | 94.4 | 99.1 | 93 | > 10 | > 10 | > 10 | > 10 | > 10
6 | C[C@@H]1NC(=O)[C@@H]2CCCN2C(=O)[C@H](CC(N)=O)NC(=O)[C@@H]2CSSC[C@H](N)C(=O)N[C@H]3CSSC[C@H](NC1=O)C(=O)N[C@@H]([C@@H](C)O)C(=O)NCC(=O)N[C@H](C(=O)N[C@@H](Cc1ccc(O)cc1)C(=O)O)CSSC[C@H](NC(=O)[C@H](Cc1ccc(O)cc1)NC(=O)[C@H](CCC(=O)O)NC3=O)C(=O)N2 [linaclotide] | 0 | 0 | 0 | 0 | 0 | 93.6 | 93.8 | 102 | 88.9 | 94.2 | 100 | 106 | 104 | 91.1 | 103 | 90.3 | 91.2 | 83.9 | 107 | 97.2 | 98.8 | 98.9 | 104 | 110 | 95.1 | 101 | 101 | 97.3 | 100 | 95.8 | > 10 | > 10 | > 10 | > 10 | > 10
7 | CCN(CC)CCOCCOC(=O)C1(c2ccccc2)CCCC1 [carbetapentane] | 0 | 0 | 0 | 0 | 0 | 104 | 103 | 97.2 | 97.5 | 94.4 | 103 | 93.9 | 108 | 104 | 97.6 | 90.6 | 93.8 | 104 | 97.6 | 100 | 97.9 | 94.3 | 94.3 | 105 | 91.1 | 99.4 | 102 | 99.5 | 101 | 95.5 | > 10 | > 10 | > 10 | > 10 | > 10
